What was measured:
[1] = HCV replicon assay (luciferase reporter, ET cell line); format: cell-based; conditions: Hepatitis C virus, HCV replicon luciferase activity in ET cells
In short: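 ET cells carry a stable luciferase-ubiquitin-neo/NS3-5B subgenomic HCV replicon with adaptive mutations. Compounds (0.1 nM to […], 0.5% DMSO) were added 24 h after plating, and luciferase was read 48-72 h later. EC50 came from 10-point 2-fold dilutions fitted to a Hill equation; TC50 was measured in parallel by WST-1.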

[2] = patients treated at currently recommended doses; cited from earlier work

Structure (SMILES) | inhibition at 10 µM [1] | patients with significant hemolysis [2]
O=C(c1nc2c(C(F)(F)F)cc(C3=CCNCC3)cn2c1Cl)N1CCC(c2cccc(F)c2)C1 (stereo not shown) [Compound 629, [3-chloro-6-(1,2,3,6-tetrahydropyridin-4-yl)-8-(trifluoromethyl)imidazo[1,2-a]pyridin-2-yl][3-(3-fluorophenyl)pyrrolidin-1-yl]methanone] | 73.3% | –
O=C(c1nc2c(C(F)(F)F)cc(-c3coc(Cl)c3)cn2c1Cl)N1CCC(c2cccc(F)c2)C1 (stereo not shown) [Compound 633, [3-Chloro-6-(5-chloro-furan-3-yl)-8-trifluoromethyl-imidazo[1,2-a]pyridin-2-yl]-[3-(3-fluoro-phenyl)-pyrrolidin-1-yl]-methanone] | 90.2% | –
O=C(c1nc2c(C(F)(F)F)cc(-c3ccoc3)cn2c1Cl)N1C2C=C(c3cscn3)CC1CC2 (stereo not shown) [Compound 634, [3-chloro-6-(furan-3-yl)-8-(trifluoromethyl)imidazo[1,2-a]pyridin-2-yl][3-(1,3-thiazol-4-yl)-8-azabicyclo[3.2.1]oct-2-en-8-yl]methanone] | 86.4% | –
N#Cc1c(F)ccc(F)c1C1=CCN(C(=O)c2nc3c(C(F)(F)F)cc(-c4ccoc4)cn3c2Cl)CC1 [Compound 635, 2-(1-{[3-chloro-6-(furan-3-yl)-8-(trifluoromethyl)imidazo[1,2-a]pyridin-2-yl]carbonyl}-1,2,3,6-tetrahydropyridin-4-yl)-3,6-difluorobenzonitrile] | 95.9% | –
CC(=O)NCc1c(-c2ccoc2)cc(C(F)(F)F)c2nc(C(=O)N3CCC(c4cccc(F)c4)C3)cn12 (stereo not shown) [Compound 637, N-{[2-{[3-(3-fluorophenyl)pyrrolidin-1-yl]carbonyl}-6-(furan-3-yl)-8-(trifluoromethyl)imidazo[1,2-a]pyridin-5-yl]methyl}acetamide] | 60.8% | –
O=C(c1cn2cc(-c3ccoc3)cc(C(F)(F)F)c2n1)N1CCC(c2cccc(F)c2)C1 (stereo not shown) [Compound 638, [3-(3-Fluoro-phenyl)-pyrrolidin-1-yl]-(6-furan-3-yl-8-trifluoromethyl-imidazo[1,2-a]pyridin-2-yl)-methanone] | 98.5% | –
O=C(c1cn2cc(-c3ccccc3)cc(C(F)(F)F)c2n1)N1CCC(c2cccc(F)c2)C1 (stereo not shown) [Compound 639, [3-(3-Fluoro-phenyl)-pyrrolidin-1-yl]-(6-phenyl-8-trifluoromethyl-imidazo[1,2-a]pyridin-2-yl)-methanone] | 71.9% | –
O=C(c1nc2c(C(F)(F)F)cc(-c3ccccc3)cn2c1Br)N1CCC(c2cccc(F)c2)C1 (stereo not shown) [Compound 640, (3-Bromo-6-phenyl-8-trifluoromethyl-imidazo[1,2-a]pyridin-2-yl)-[3-(3-fluoro-phenyl)-pyrrolidin-1-yl]-methanone] | 88.1% | –
O=C(c1nc2c(C(F)(F)F)cc(-c3ccccc3)cn2c1Cl)N1CCC(c2cccc(F)c2)C1 (stereo not shown) [Compound 641, (3-Chloro-6-phenyl-8-trifluoromethyl-imidazo[1,2-a]pyridin-2-yl)-[3-(3-fluoro-phenyl)-pyrrolidin-1-yl]-methanone] | 80.9% | –
CC(=O)c1cc(C(F)(F)F)c2nc(C(=O)N3CCC(c4cccc(F)c4)C3)c(Cl)n2c1 (stereo not shown) [Compound 642, 1-{3-Chloro-2-[3-(3-fluoro-phenyl)-pyrrolidine-1-carbonyl]-8-trifluoromethyl-imidazo[1,2-a]pyridin-6-yl}-ethanone] | 73.8% | –
Nc1nc(-c2cc(C(F)(F)F)c3nc(C(=O)N4CCC(c5cccc(F)c5)C4)c(Cl)n3c2)cs1 (stereo not shown) [Compound 643, 2[6-(2-Amino-thiazol-4-yl)-3-chloro-8-trifluoromethyl-imidazo[1,2-a]pyridin-2-yl]-[3-(3-fluoro-phenyl)-pyrrolidin-1-yl]-methanone] | 74.5% | –
CC(=O)Nc1nc(-c2cc(C(F)(F)F)c3nc(C(=O)N4CCC(c5cccc(F)c5)C4)c(Cl)n3c2)cs1 (stereo not shown) [Compound 644, N-(4-{3-Chloro-2-[3-(3-fluoro-phenyl)-pyrrolidine-1-carbonyl]-8-trifluoromethyl-imidazo[1,2-a]pyridin-6-yl}-thiazol-2-yl)-acetamide] | 59.6% | –
CC(C)c1cc(-c2ccccc2)cn2c(Br)c(C(=O)NCc3cccs3)nc12 [Compound 645, 3-Bromo-8-isopropyl-6-phenyl-imidazo[1,2-a]pyridine-2-carboxylic acid (thiophen-2-ylmethyl)-amide] | 87.1% | –
CC(C)c1cc(-c2ccccc2)cn2cc(C(=O)N3CCC(c4cccc(F)c4)C3)nc12 (stereo not shown) [Compound 646, [3-(3-Fluoro-phenyl)-pyrrolidin-1-yl]-(8-isopropyl-6-phenyl-imidazo[1,2-a]pyridin-2-yl)-methanone] | 42.4% | –
CC(C)c1cc(-c2ccccc2)cn2c(Br)c(C(=O)N3CCC(c4cccc(F)c4)C3)nc12 (stereo not shown) [Compound 647, (3-Bromo-8-isopropyl-6-phenyl-imidazo[1,2-a]pyridin-2-yl)-[3-(3-fluoro-phenyl)-pyrrolidin-1-yl]-methanone] | 58.6% | –
CC(C)Cn1cc(-c2cc(C(F)(F)F)c3nc(C(=O)NCc4cccs4)c(Cl)n3c2)cn1 [Compound 649, 3-Chloro-6-(1-isobutyl-1H-pyrazol-4-yl)-8-trifluoromethyl-imidazo[1,2-a]pyridine-2-carboxylic Acid(thiophen-2-ylmethyl)-amide] | 62.7% | –
O=C(Cc1cn2cc(-c3ccoc3)cc(C(F)(F)F)c2n1)NCc1cccs1 [Compound 650, 2-[6-(furan-3-yl)-8-(trifluoromethyl)imidazo[1,2-a]pyridin-2-yl]-N-(thiophen-2-ylmethyl)acetamide] | 65.7% | –
O=C(Cc1cn2cc(-c3ccoc3)cc(C(F)(F)F)c2n1)N1CCC(c2cccc(F)c2)C1 (stereo not shown) [Compound 652, 1-[3-(3-fluorophenyl)pyrrolidin-1-yl]-2-[6-(furan-3-yl)-8-(trifluoromethyl)imidazo[1,2-a]pyridin-2-yl]ethanone] | 82.1% | –
FC(F)(F)c1cc(-c2ccoc2)cn2cc(-c3cc(-c4ccccc4)no3)nc12 [Compound 654, 6-Furan-3-yl-2-(3-phenyl-isoxazol-5-yl)-8-trifluoromethyl-imidazo[1,2-a]pyridine] | 20.4% | –
FC(F)(F)c1cc(-c2ccco2)cn2c(Cl)c(-c3nc(Cc4ccccc4)no3)nc12 [Compound 656, 2-(3-Benzyl-[1,2,4]oxadiazol-5-yl)-3-chloro-6-furan-2-yl-8-trifluoromethyl-imidazo[1,2-a]pyridine] | 34.1% | –
O=C(c1nc2c(C(F)(F)F)cc(-c3cn[nH]c3)cn2c1I)N1CCC(c2cccc(F)c2)C1 (stereo not shown) [Compound 659] | 93.8% | –
NC(=O)c1ncn([C@@H]2O[C@H](CO)[C@@H](O)[C@H]2O)n1 [Ribavirin, ribavirin] | – | 10-20%
